The results in this text go back to patent US20250199015A1, “CYCLIN-DEPENDENT KINASE 2 INHIBITORS FOR MEDICAL TREATMENT” (INCYCLIX BIO, LLC, priority 2022, published 2025).

For test [1], the system named is T47D human breast carcinoma cells. Briefly: Crystal violet colony assay. The format is cell-based. The method, then: (§1) The T47D human breast carcinoma cell line was grown in RPMI-1640/1× Glutamax/1× Insulin/10% fetal bovine serum and was plated at 10,000 cells/well in Corning 6-well tissue culture treated plates. Cells were incubated at 37° C. for 24 hours prior to addition of treatment. […] Plates were collected at week 2 and 3, at week 3, 2 plates with only palbociclib were switched to combination treatment. The remaining plates were collected at weeks 5 and 8. Collection was performed by washing wells with PBS before incubating 5 minutes with 0.1% crystal violet/20% methanol. Dye was removed and wells washed 4 times with PBS before being scanned at 1200 dpi. Image J was used to count the % area and colony size for each well (FIG. 8F-I). GraphPad Prism was used for analysis. Cells treated with DMSO control retained large colonies that inhabited the majority of the well surface area from week 3 beyond (FIG. 8F).
as §1, with “6 well tissue culture treated plates. The BT474 human breast carcinoma cell line was grown in DMEM/1× Glutamax/1× Insulin/10% fetal bovine serum and was plated at 25,000 cells/well in Corning 6 well” for “6-well”, “CDK4/6i” for “palbociclib”, “well. Graph pad” for “well (FIG. 8F-I). GraphPad Prism”, “analysis.” for “analysis. Cells treated with DMSO control retained large colonies that inhabited the majority of the well surface area from week 3 beyond (FIG. 8F).”
The T47D human breast carcinoma cell line was grown in RPMI-1640/1× Glutamax/1× Insulin/10% fetal bovine serum and was plated at 10,000 cells/well in Corning 6 well tissue culture treated plates. Cells were incubated at 37° C. for 24 hours prior to addition of treatment. […] Plates were collected at weeks 2 and 3. Collection was performed by washing wells with PBS before incubating 5 minutes with 0.1% crystal violet/20% methanol. Dye was removed and wells washed 4 times with PBS before being scanned at 1200 dpi. Image J was used to count the percent area and colony size for each well and Graph pad was used for analysis.

The test system of a further test is OVCAR-3 cells. Kind of test: Cell cycle by EdU flow cytometry (dose, time, washout, tracing). It counts as cell-based, human. The protocol: Cells were plated at 100,000 cells/well in Corning 6 cm tissue culture treated plates. […] Cells were collected and fixed in 1% paraformaldehyde. Cells were incubated with Alexa488 azide dye as described by Thermo Scientific. Cells were then incubated with Fxcycle-violet and RNase. Cells were analyzed on a BD Celesta and data compiled using FloJo and GraphPad.
The OVCAR3 human ovarian carcinoma cell line was grown in RPMI-1640/1× Glutamax/1× Insulin/10% fetal bovine serum and was plated at 300,000 cells/well in Corning 6 cm tissue culture treated plates. […] Cells were treated for the indicated amount of time (24 hours or 48 hours), with 10 μM EdU added for the last hour of treatment. Cells were collected and fixed in 1% paraformaldehyde. Cells were incubated with Alexa 488 (A488) azide dye as described by Thermo Scientific. Cells were then incubated with FarRed dye and RNase. Cells were analyzed on a BD Celesta and data compiled using FloJo and GraphPad Prism (FIG. 13A-B).
The OVCAR3 human ovarian carcinoma cell line was grown in RPMI-1640/1× Glutamax/1× Insulin/10% fetal bovine serum and was plated at 300,000 cells/well in Corning 6 cm tissue culture treated plates. […] At 24 hours, the remaining plates were rinsed with media before un-treated media was added back. Cells were collected at the indicated times, with 10 μM EdU added for the last hour (FIG. 14A). Cells were collected and fixed in 1% paraformaldehyde. Cells were incubated with Pacific blue azide dye as described by Thermo Scientific. Cells were then incubated with FarRed dye and RNase. Cells were analyzed on a BD Celesta and data compiled using FloJo and GraphPad. […] By 18 hours, OVCAR-3 cells were in G2 or reentering G1. Cells appeared to remain somewhat synchronized over 48 hours.
The OVCAR3 human ovarian carcinoma cell line was grown in RPMI-1640/1× Glutamax/1× Insulin/10% fetal bovine serum and was plated at 300,000 cells/well in Corning 6 cm tissue culture treated plates. […] Cells were divided into two sets. The first set was treated for the indicated amount of time, with 10 μM EdU added for the last hour of treatment before being collected. The second set of cells were treated for the indicated amount of time and had EdU added for one hour before the timepoint. Then the media was aspirated, the cells washed, and re-treated with treatment media. The second set of cells was collected at 48 hours, allowing for tracing of the EdU positive cells. Cells were collected and fixed in 1% paraformaldehyde. Cells were incubated with Alexa 488 (A488) azide dye as described by Thermo Scientific. Cells were then incubated with FarRed dye and RNase. Cells were analyzed on a BD Celesta and data compiled using FloJo and GraphPad. […] Several “snap shots” of cells at various timepoints, followed by where the cells from S phase ended up at the end of 48 hours of treatment, were collected. […] It appears that the cells in S phase at after 6 hours of treatment are arresting in G1 (FIG. 15B). At 24 hours of treatment, little to no cells were in S phase so there were no cells to trace (FIG. 15C). Although the DMSO sample appears largely different at 48 hours, the distribution appears similar to the DMSO, EdU free cells at 48 hours. […] (FIG. 15D).

Test [2] relates to SA-beta galactosidase in LYR and LYFR cells. Briefly: Senescence-associated beta-galactosidase staining. The following applies: with abemaciclib and/or fulvestrant, 5 days. It counts as cell-based. The protocol: Briefly, cells were plated at low density and treated with the agents described for 5 days. A senescence detection kit was used to stain for SA-beta galactosidase (FIG. 148A-148D).

Structures are written as SMILES.

Regarding `NS(=O)(=O)c1ccc(Nc2ncc3cc4n(c3n2)C2(CCCCC2)C(=O)NN4)cc1` [Compound I], the “growth with combination of fulvestrant and Compound I” value in test [1] (100 nM Compound I + 1 nM Fulvestrant, weeks 2 and 3) is given as “reduced growth of cells”. Also, the “growth with both Compound I and a CDK4/6i” value in test [1] (300 nM each, 8 weeks) was “no noticeable growth after 8 weeks”. The “time to CDK4/6i resistance” value in test [1] (300 nM with palbociclib or abemaciclib, up to 8 weeks) is “prolonged the time to CDK4/6i resistance”. Moreover, in test [1] (300 nM, weeks 2-8), the “colony size and percent plate area” value is on record as “substantially reduced colony size”. In addition, the “cell cycle distribution with increasing concentrations” value with OVCAR-3 cells (10 nM to 10 μM, 24 hours) is “exit the S-phase and increasingly occupy the G0-G1 phase”. Also, the “G1 arrest over 48 h” value in the test with OVCAR-3 cells (100 nM) was “does not arrest all cells in G1”; with OVCAR-3 cells (300 nM), “performs just as well”. For the same molecule, the “cells arrested in G1” value in the test on OVCAR-3 cells (300 nM, 24 hours) is recorded as “Approximately 80%”. Moreover, the “cells proceeding to S phase compared with PF-07104091” value in the test on OVCAR-3 cells (1, 6, 24 and 48 hours of treatment) is “permits fewer cells to proceed to S phase”. Besides, the “fate of cells in S phase at treatment initiation (EdU tracing)” value in the test with OVCAR-3 cells (traced to 48 hours) was “become arrested in G1”. Also, the beta galactosidase staining entry in test [2] was “significantly increased beta galactosidase staining”.
